This is an account of results in PMC4370454, “The 4′-Hydroxyl Group of Resveratrol Is Functionally Important for Direct Activation of PPARα” (PLoS ONE, 2015).

In general, IC50 refers to the concentration that inhibits the measured activity by half. A higher IC50 goes with weaker potency.

Molecules are shown by their SMILES.

The target of the experiment is T1, PDE (bovine brain-derived phosphodiesterase, majority PDE4 isozyme).
T1 construct: bovine brain-derived PDE (Sigma), majority PDE4 isozyme
As to the kind of experiment: PDE-Glo phosphodiesterase assay, […] cAMP substrate. Format: biochemical, Bos taurus.

`Oc1ccc(/C=C/c2cc(O)cc(O)c2)cc1` [resveratrol]: 19 µM corresponded to half-maximal inhibition (IC50). That is a double-digit micromolar value.

In the case of `Oc1ccc(/C=C/c2ccccc2)cc1` [T4HS, trans-4-hydroxystilbene], the 50% inhibitory concentration (IC50) was found to be 27.8 µM.

Regarding `Oc1ccc(/N=N/c2ccccc2)cc1` [4-PAP, 4-phenylazophenol], it took 26.5 µM to reach half-maximal inhibition (IC50).
